Each structure is given as a SMILES string. Where two headings read alike, the source gives them in different places.

The target of one experiment is KRAS G12D (Homo sapiens (Human), UniProt P01116, G12D). Put plainly: KRAS G12D LoEnz Biochemical Assay, BODIPY-GDP Exchange TR-FRET (SOS1-mediated nucleotide exchange). Particulars: read-out: KRas (G12D) GDP HTRF IC50.
Another experiment has as its target KRAS WT (Homo sapiens (Human), UniProt P01116). Nature of the experiment: KRAS WT Biochemical Assay, BODIPY-GDP Exchange TR-FRET (Example 501; 3 nM KRAS WT, 3 nM SOS1, 60-minute incubation). In outline:
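SOS1-mediated exchange assay: 3 nM biotin-KRAS WT with terbium-streptavidin, started with 3 nM SOS1 and 300 nM BODIPY-GDP, HEPES pH 7.5 with MgCl2. TR-FRET (520/490 nm) read after 60 min; normalized to DMSO and full-inhibition control, IC50 from 4-parameter Hill fit.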

The mark [1] stands for this setting: read-out: KRas(wt) GDP HTRF IC50.

Sequence of KRAS WT (P01116-2 other isoform, or with tags, fused parts or gaps): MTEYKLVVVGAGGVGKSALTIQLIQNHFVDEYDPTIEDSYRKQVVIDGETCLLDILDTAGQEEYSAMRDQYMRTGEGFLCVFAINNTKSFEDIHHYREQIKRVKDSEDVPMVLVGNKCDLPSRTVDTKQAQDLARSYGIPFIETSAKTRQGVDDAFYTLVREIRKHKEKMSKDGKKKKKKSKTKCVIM
Sequence of KRAS G12D (P01116-2 other isoform, or with tags, fused parts or gaps G12D): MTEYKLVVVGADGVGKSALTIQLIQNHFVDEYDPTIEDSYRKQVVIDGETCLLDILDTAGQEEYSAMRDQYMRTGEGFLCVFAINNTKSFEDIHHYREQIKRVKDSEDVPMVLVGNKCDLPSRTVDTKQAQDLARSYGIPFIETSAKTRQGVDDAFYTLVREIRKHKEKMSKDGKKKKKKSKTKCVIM

For `Cc1c(F)c(N)c(F)c(-c2nc3c4c(nc(OC[C@@H]5C[C@@H](F)CN5C)nc4c2F)N2C[C@H]4CC[C@H](N4)[C@H]2[C@H](C)O3)c1C(F)(F)F` [Compound 228, 2,6-Difluoro-3-((5S,5aS,6S,9R)-1-fluoro-12-(((2S,4R)-4-fluoro-1-methylpyrrolidin-2-yl)methoxy)-5-methyl-5a,6,7,8,9,10-hexahydro-5H-4-oxa-3,10a,11,13,14-pentaaza-6,9-methanonaphtho[1,8-ab]heptalen-2-yl)-5-methyl-4-(trifluoromethyl)aniline], the IC50 was 370 nM on KRAS G12D and 4880 nM on KRAS WT (read-out: KRas HTRF IC50).

As for `Cc1c(F)c(N)cc(-c2nc3c4c(nc(OCC56CCN5C[C@H](F)C6)nc4c2F)N2C[C@H]4CC[C@H](N4)[C@H]2[C@H](C)O3)c1C(F)(F)F` (stereo partly drawn) [Compound 29, 2-fluoro-5-((5S,5aS,6S,9R)-1-fluoro-12-(((3R)-3-fluoro-1-azabicyclo[3.2.0]heptan-5-yl)methoxy)-5-methyl-5a,6,7,8,9,10-hexahydro-5H-4-oxa-3,10a,11,13,14-pentaaza-6,9-methanonaphtho[1,8-ab]heptalen-2-yl)-3-methyl-4-(trifluoromethyl)aniline], the IC50 stood at 0.086 nM on KRAS G12D and 2.93 nM on KRAS WT (setting [1]).

Take `COC1(C)CN(CC2(COc3nc4c5c(nc(-c6cc(N)nc(C)c6C(F)(F)F)c(F)c5n3)O[C@@H](C)[C@@H]3[C@@H]5CC[C@H](CN43)N5)CC2)C1` [Compound 273, 4-((5S,5aS,6S,9R)-1-fluoro-12-((1-((3-methoxy-3-methylazetidin-1-yl)methyl)cyclopropyl)methoxy)-5-methyl-5a,6,7,8,9,10-hexahydro-5H-4-oxa-3,10a,11,13,14-pentaaza-6,9-methanonaphtho[1,8-ab]heptalene-2-yl)-6-methyl-5-(trifluoromethyl)pyridin-2-amine]: the half-inhibitory concentration (IC50) on KRAS G12D came out at 0.29 nM; on KRAS WT (read-out: KRas HTRF IC50), 17.1 nM.

Regarding `C#Cc1cccc2cc(O)cc(-c3nc4c5c(nc(OC[C@@]67CCN6CC(F)(F)C7)nc5c3F)N3C[C@H]5CC[C@H](N5)[C@H]3[C@H](C)O4)c12` (single isomer, unassigned) [Compound 20], the values for the IC50 at KRAS G12D and on KRAS WT (setting [1]) were 0.12 nM and 6.55 nM, respectively.

Consider `C[C@@H]1Oc2nc(-c3cccc4cccc(Cl)c34)c(F)c3nc(OC[C@@]45CCCN4CC4(CC4(F)F)C5)nc(c23)N2C[C@H]3CC[C@H](N3)[C@@H]12` (stereo partly drawn) [Compound 27, (5S,5aS,6S,9R)-2-(8-chloronaphthalen-1-yl)-12-(((7a′S)-2,2-difluorodihydro-1′H,3′H-spiro[cyclopropane-1,2′-pyrrolizin]-7a′(5′H)-yl)methoxy)-1-fluoro-5-methyl-5a,6,7,8,9,10-hexahydro-5H-4-oxa-3,10a,11,13,14-pentaaza-6,9-methanonaphtho[1,8-ab]heptalene], for which the values for the IC50 on KRAS G12D and at KRAS WT (setting [1]) were 0.72 nM and 65.2 nM, respectively.

Consider `Cc1nc(N)cc(-c2nc3c4c(nc(OCC56CCCN5CC(F)C6)nc4c2F)N2CC4CCC(N4)[C@H]2[C@@H](C(F)(F)F)O3)c1C(F)(F)F` (stereo in doubt) [Compound 243, 4-((6R,9S)-1-fluoro-12-(((2S,7aR)-2-fluorotetrahydro-1H-pyrrolizin-7a(5H)-yl)methoxy)-5-(trifluoromethyl)-5a,6,7,8,9,10-hexahydro-5H-4-oxa-3,10a,11,13,14-pentaaza-6,9-methanonaphtho[1,8-ab]heptalene-2-yl)-6-methyl-5-(trifluoromethyl)pyridin-2-amine], for which the figures for the IC50 at KRAS G12D and on KRAS WT (read-out: KRas HTRF IC50) were 581 nM and 3960 nM, respectively.

For the molecule `Fc1c(-c2cccc3cccc(Cl)c23)nc2c3c(ncnc13)N1C[C@H]3CC[C@H](N3)[C@H]1CO2` [Compound 53, (5aS,6S,9R)-2-(8-Chloronaphthalen-1-yl)-1-fluoro-5a,6,7,8,9,10-hexahydro-5H-4-oxa-3,10a,11,13,14-pentaaza-6,9-methanonaphtho[1,8-ab]heptalene], the IC50 at KRAS G12D turned out to be 22200 nM; on KRAS WT (setting [1]), 200000 nM.

Regarding `Cc1c(F)c(N)cc(-c2nc3c4c(nc(OC[C@@]56CCCN5C[C@H](F)C6)nc4c2F)N2CCNC[C@H]2[C@H](C)O3)c1C(F)(F)F` (single isomer, unassigned) [235 (isomer 1)], the values for the concentration for half-maximal inhibition (IC50) on KRAS G12D and at KRAS WT (read-out: KRas HTRF IC50) were 65.8 nM and 143 nM, respectively.

On to `C#Cc1cccc2cc(O)cc(-c3nc4c5c(nc(OC[C@@]67CCCN6C[C@H](F)C7)nc5c3F)N3C[C@H]5CC[C@H](N5)[C@H]3[C@H](C(F)(F)F)O4)c12` [Compound 251, 5-Ethynyl-4-((5R,5aS,6S,9R)-1-fluoro-12-(((2R,7aS)-2-fluorotetrahydro-1H-pyrrolizin-7a(5H)-yl)methoxy)-5-(trifluoromethyl)-5a,6,7,8,9,10-hexahydro-5H-4-oxa-3,10a,11,13,14-pentaaza-6,9-methanonaphtho[1,8-ab]heptalene-2-yl)naphthalen-2-ol], for which the results for the IC50 at KRAS G12D and at KRAS WT (read-out: KRas HTRF IC50) were 0.16 nM and 1.05 nM, respectively.

Turning to `Cc1nc(N)cc(-c2nc3c4c(nc(OC[C@@]56CCCN5C[C@H](F)C6)nc4c2F)N2C[C@H]4CC[C@H](N4)[C@H]2[C@H](C)O3)c1C(F)(F)F` [Compound 215, 4-((5S,5aS,6S,9R)-1-Fluoro-12-(((2R,7aS)-2-fluorotetrahydro-1H-pyrrolizin-7°(5H)-yl)methoxy)-5-methyl-5°,6,7,8,9,10-hexahydro-5H-4-oxa-3,10°,11,13,14-pentaaza-6,9-methanonaphtho[1,8-ab]heptalen-2-yl)-6-methyl-5-(trifluoromethyl)pyridin-2-amine], the IC50 on KRAS G12D stood at 0.21 nM; at KRAS WT (read-out: KRas HTRF IC50) it was 7.1 nM.

As for `C#Cc1cccc2cc(O)cc(-c3nc4c5c(nc(OC[C@]67CCN6CC(F)(F)C7)nc5c3F)N3C[C@H]5CC[C@H](N5)[C@H]3[C@H](C)O4)c12` (single isomer, unassigned) [Compound 19], the figures for the IC50 on KRAS G12D and at KRAS WT (setting [1]) were 0.08 nM and 1.83 nM, respectively.

Consider `Cc1c(F)c(N)nc(-c2nc3c4c(nc(OC[C@@]56CCCN5C[C@H](F)C6)nc4c2F)N2C[C@H]4CC[C@H](N4)[C@H]2[C@H](C)O3)c1C(F)(F)F` [Compound 191, 3-Fluoro-6-((5S,5aS,6S,9R)-1-fluoro-12-(((2R,7aS)-2-fluorotetrahydro-1H-pyrrolizin-7a(5H)-yl)methoxy)-5-methyl-5a,6,7,8,9,10-hexahydro-5H-4-oxa-3,10a,11,13,14-pentaaza-6,9-methanonaphtho[1,8-ab]heptalen-2-yl)-4-methyl-5-(trifluoromethyl)pyridin-2-amine], for which the IC50 on KRAS G12D turned out to be 0.46 nM; at KRAS WT (read-out: KRas HTRF IC50), 91.1 nM.

Turning to `Cc1c(Cl)c(N)cc(-c2nc3c4c(nc(OC[C@@]56CCCN5C[C@H](F)C6)nc4c2Cl)N2C[C@H]4CC[C@H](N4)[C@H]2[C@H](C)O3)c1C(F)(F)F` [Compound 241, 2-Chloro-5-((5S,5aS,6S,9R)-1-chloro-12-(((2R,7aS)-2-fluorotetrahydro-1H-pyrrolizin-7a(5H)-yl)methoxy)-5-methyl-5a,6,7,8,9,10-hexahydro-5H-4-oxa-3,10a,11,13,14-pentaaza-6,9-methanonaphtho[1,8-ab]heptalen-2-yl)-3-methyl-4-(trifluoromethyl)aniline], the IC50 was 0.13 nM on KRAS G12D and 15.4 nM at KRAS WT (read-out: KRas HTRF IC50).

Take `Cc1c(F)c(N)cc(-c2nc3c4c(nc(OC[C@@]56CCCN5C[C@H](F)C6)nc4c2F)N2C[C@H]4CC[C@H](N4)[C@@H]2[C@H](C)O3)c1C(F)(F)F` (single isomer, unassigned) [237 (isomer 1)]: the values for the IC50 on KRAS G12D and at KRAS WT (read-out: KRas HTRF IC50) were 1910 nM and 1020 nM, respectively.

Take `Cc1c(F)c(N)c(F)c(-c2nc3c4c(nc(OC[C@@]56CCCN5C[C@H](F)C6)nc4c2F)N2C[C@H]4CC[C@H](N4)[C@H]2[C@H](C)O3)c1Cl` [Compound 195, 4-Chloro-2,6-difluoro-3-((5S,5aS,6S,9R)-1-fluoro-12-(((2R,7aS)-2-fluorotetrahydro-1H-pyrrolizin-7a(5H)-yl)methoxy)-5-methyl-5a,6,7,8,9,10-hexahydro-5H-4-oxa-3,10a,11,13,14-pentaaza-6,9-methanonaphtho[1,8-ab]heptalen-2-yl)-5-methylaniline]: the IC50 on KRAS G12D worked out at 0.44 nM; on KRAS WT (read-out: KRas HTRF IC50), 108 nM.

Consider `Cc1nc(N)cc(-c2nc3c4c(nc(OCC5(CN6CC[C@H]7OCC[C@H]76)CC5)nc4c2F)N2C[C@H]4CC[C@H](N4)[C@H]2[C@H](C)O3)c1C(F)(F)F` [Compound 268, 4-((5S,5aS,6S,9R)-1-fluoro-12-((1-(((3aR,6aR)-hexahydro-4H-furo[3,2-b]pyrrol-4-yl)methyl)cyclopropyl)methoxy)-5-methyl-5a,6,7,8,9,10-hexahydro-5H-4-oxa-3,10a,11,13,14-pentaaza-6,9-methanonaphtho[1,8-ab]heptalene-2-yl)-6-methyl-5-(trifluoromethyl)pyridin-2-amine], for which the IC50 at KRAS G12D was determined as 0.29 nM; at KRAS WT (read-out: KRas HTRF IC50) it was 11.9 nM.

Regarding `CCc1c(F)c(N)cc(-c2nc3c4c(nc(OC[C@@H]5CC[C@H]6COCCN65)nc4c2F)N2C[C@H]4CC[C@H](N4)[C@H]2[C@H](C)O3)c1C(F)(F)F` [Compound 232, 3-Ethyl-2-fluoro-5-((5S,5aS,6S,9R)-1-fluoro-12-(((6S,8aS)-hexahydro-1H-pyrrolo[2,1-c][1,4]oxazin-6-yl)methoxy)-5-methyl-5a,6,7,8,9,10-hexahydro-5H-4-oxa-3,10a,11,13,14-pentaaza-6,9-methanonaphtho[1,8-ab]heptalen-2-yl)-4-(trifluoromethyl)aniline], the IC50 at KRAS G12D amounted to 2.86 nM; on KRAS WT (read-out: KRas HTRF IC50), 277 nM.

Consider `Cc1c(F)ccc(-c2nc3c4c(nc(OC[C@@]56CCCN5C[C@H](F)C6)nc4c2F)N2C[C@H]4CC[C@H](N4)[C@H]2[C@H](C)O3)c1C(F)(F)F` [Compound 203, (5S,5aS,6S,9R)-1-fluoro-2-(4-fluoro-3-methyl-2-(trifluoromethyl)phenyl)-12-(((2R,7aS)-2-fluorotetrahydro-1H-pyrrolizin-7a(5H)-yl)methoxy)-5-methyl-5a,6,7,8,9,10-hexahydro-5H-4-oxa-3,10a,11,13,14-pentaaza-6,9-methanonaphtho[1,8-ab]heptalene], for which the IC50 came to 26.8 nM on KRAS G12D and 1590 nM on KRAS WT (read-out: KRas HTRF IC50).

The values above are taken from patent US20240025919A1, “AZA-TETRACYCLIC OXAZEPINE COMPOUNDS AND USES THEREOF” (Genentech, Inc., priority 2022, published 2024).
